What was measured:
[1] = biological target: T1, Acetylcholinesterase (AChE) (Electrophorus electricus, UniProt O42275); assay: biochemical
Experimental: (§1) AChE was used to carry out the inhibitory assay using Ellman’s method [23] with modifications. A 0.05 M phosphate buffer, pH 8.0, was used in this protocol. Additionally, 60 µL of the herbal extract was mixed with the same volume of 0.5 mM enzyme solution and 120 µL of phosphate buffer, and kept at 25 °C for 15 min in a flat-bottom 96-well plate. Agent 5, 5′-dithiobis-2-nitrobenzoic acid (DTNB, 30 µL of 0.003 M) and 40 µL of 0.002 M acetylthiocholine iodide (ATCI) were added into the mixture to start the reaction. The reaction was maintained at 25 °C for 10 min before the absorbance was measured at the wavelength of 415 nm. For the control group, 60 µL of phosphate buffer was used instead of 60 µL of the herbal extract solution and the same condition was used for the calculation of enzyme inhibition activity using the following equation:AChE inhibition (%) = (AC − AE)/AC × 100, where AE is the absorbance value measured at 415 nm of the reaction containing herbal extract and enzyme, while AC is the absorbance value at 415 nm of the reaction containing enzyme and phosphate buffer instead of the herbal extract. The samples and berberine chloride (commercial AChE inhibitor) were dissolved in dimethylsulfoxide and eluted at various concentrations using a 0.05 M phosphate buffer and then used for the tests.

[2] = biological target: T1, Acetylcholinesterase (AChE); assay: AChE enzyme inhibition assay (Ellman's method, modified); details: IC50, different parts of ELC extracted by MeOH (Table 2)
Experimental: as §1

[3] = biological target: T1, Acetylcholinesterase (AChE)
Experimental: as §1

293T normal cells = details: cited from earlier work
tumor cell lines = details: EGCG from green tea at 40–200 microM; cited from earlier work
HuCC-T1 cancer cells = details: cited from earlier work
WI38 normal cells = details: EGCG from green tea at 40–200 microM; cited from earlier work
normal cells = details: cited from earlier work; for effect on normal cells: cause death for various cancer cells
[4] = system: bronchial epithelial 16HBE normal cells; details: cited from earlier work
[5] = adjuvant chemotherapeutic agents; cited from earlier work

T1 sequence (O42275 24-633): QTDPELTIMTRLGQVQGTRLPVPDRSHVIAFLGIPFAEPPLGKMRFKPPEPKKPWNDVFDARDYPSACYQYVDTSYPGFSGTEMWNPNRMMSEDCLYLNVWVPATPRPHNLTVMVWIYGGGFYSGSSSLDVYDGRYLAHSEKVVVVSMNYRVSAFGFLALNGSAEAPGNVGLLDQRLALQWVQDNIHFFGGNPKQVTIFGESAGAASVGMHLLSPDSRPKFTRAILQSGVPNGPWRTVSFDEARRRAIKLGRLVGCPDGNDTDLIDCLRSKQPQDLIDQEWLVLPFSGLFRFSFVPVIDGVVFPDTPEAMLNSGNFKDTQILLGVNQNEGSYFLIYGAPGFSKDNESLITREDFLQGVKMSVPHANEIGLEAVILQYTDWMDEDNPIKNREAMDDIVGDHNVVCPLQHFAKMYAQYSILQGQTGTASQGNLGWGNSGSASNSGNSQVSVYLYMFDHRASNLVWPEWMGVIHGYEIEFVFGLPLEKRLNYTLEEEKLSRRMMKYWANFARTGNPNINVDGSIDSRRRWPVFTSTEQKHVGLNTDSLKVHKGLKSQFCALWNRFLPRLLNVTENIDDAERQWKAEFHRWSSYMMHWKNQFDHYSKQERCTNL

In the case of `COc1ccc2cc3[n+](cc2c1OC)CCc1cc2c(cc1-3)OCO2` [Berberine chloride, berberine chloride], the IC50 [1] is reported as 934 µM, the IC50 [2] is reported as 972 µM and the inhibition [3] is reported as 98.2 ± 1.8%.

In the case of `O=C(O[C@@H]1Cc2c(O)cc(O)cc2O[C@@H]1c1cc(O)c(O)c(O)c1)c1cc(O)c(O)c(O)c1` [Compd 12, epigallocatechin gallate], the “viability of 293T normal cells” value (293T normal cells) is listed as “safe”, the “death of tumor cell lines” value (tumor cell lines) is listed as “significant death” and the “toxicity on HuCC-T1 cancer cells” value (HuCC-T1 cancer cells) is listed as “toxic”. For the same compound, the “WI38 normal cells growth affected” value (WI38 normal cells) was 1%.

For `Oc1cc(O)c2c(c1)O[C@H](c1ccc(O)c(O)c1)[C@H](O)C2` [Compd 13, epicatechin], the “effect on normal cells” value (normal cells) is given as “no effect on normal cells”.

For `O=C(O[C@@H]1Cc2c(O)cc(O)cc2O[C@@H]1c1ccc(O)c(O)c1)c1cc(O)c(O)c(O)c1` [Compd 14, epicatechin gallate], the “effect on normal cells” value (normal cells) is given as “no effect on normal cells”.

For `O=c1cc(-c2ccc(O)cc2)oc2c([C@@H]3O[C@H](CO)[C@@H](O)[C@H](O)[C@H]3O)c(O)cc(O)c12` [Compd 15, vitexin], the “effect on bronchial epithelial 16HBE normal cells” value [4] is given as “non-effect”.

In the case of `C[C@@H]1O[C@@H](OC[C@H]2O[C@@H](Oc3c(-c4ccc(O)c(O)c4)oc4cc(O)cc(O)c4c3=O)[C@H](O)[C@@H](O)[C@@H]2O)[C@H](O)[C@H](O)[C@H]1O` [Compd 17, rutin], the “toxicity and side effects via in vivo and clinical trials” value (shortened to “toxicity and side effects via”) [5] is listed as “trivial toxicity and side effects”.

For `O=c1cc(-c2ccc(O)cc2)oc2cc(O[C@@H]3O[C@H](CO)[C@@H](O)[C@H](O)[C@H]3O)cc(O)c12` [Compd 18, apigetrin], the “toxicity and side effects via” value [5] is given as “trivial toxicity and side effects”.

For `O=c1c(O)c(-c2cc(O)c(O)c(O)c2)oc2cc(O)cc(O)c12` [Compd 19, myricetin], the “toxicity and side effects via” value [5] is given as “trivial toxicity and side effects”.

For `O=c1c(O)c(-c2ccc(O)c(O)c2)oc2cc(O)cc(O)c12` [Compd 20, quercetin], the “effects on normal cells” value (normal cells) is listed as “no or low effects on normal cells”.

For `O=c1cc(-c2ccc(O)cc2)oc2cc(O)cc(O)c12` [Compd 21, apigenin], the “effects on normal cells” value (normal cells) is given as “no or low effects on normal cells”.

— paper PMC10305147 (Life, 2023)
